Measurements from US8435538B2, “Anti-atheroma vaccine” (Thrombosis Research Institute, priority 2008, dated 2013).
“And” between values parts separate entries of the source, which are not always exact repeats. Identical values can stand only once. Ends that are not written are not given here.

Experiments:
[1] = test system: Apob^tm2Sgy Ldlr^tm1Her/J KO-mice; assay: RIMMS immunization, serum IgG titre by ELISA, KO-mouse model; type: in vivo; settings: titre = highest serum dilution giving OD (450 nm) ≧1
Experimental: The ability of the recombinant immunogens to generate an immune response in BALB/C mice models, C57/BL6 mice models and Apob^tm2Sgy Ldlr^tm1Her/J KO-mice models. Mice were immunized using a repetitive, multiple site immunization strategy (RIMMS). Groups of 10 of 6-8-week-old BALB/c mice were inoculated with 4 μg of recombinant immunogen mixed with Freund's adjuvant 5 times respectively. The immunization was carried out subcutaneously into 8 sites on days 0, 2, 5, 7 and 9. On day 12 and 21 blood sample will be collected to test the antibody response. […]
Serum samples of immunized and naïve mice were tested for IgG antibodies using OD values at a dilution of 1:100 (or 200) on ELISA plates coated with antigens. Cut-off value for positivity was calculated as mean OD of naïve mouse sera+3×SD. Serum samples showing higher OD on antigen than on control antigen are considered positive, the other is determined by the highest dilution of serum giving an OD reading (at 450 nm)≧1. In this regard, titre can be assessed as non-immunoreactivity (<200), low immunoreactivity (200≦titre<800), good immunoreactivity (800≦titre<3200) and very good immunoreactivity ((titre 3200)

[2] = test system: ApoB1 peptide; assay: Peptide-specific antibody response in sera by ELISA after immunization with KLH conjugates, antigen ApoB1 peptide; type: in vivo, mice
Description: (§1) Apob^tm2SgyLdlr^tm1Her/J mice were immunized with combinations of ApoB and hHSP epitopes conjugated to keyhole limpet hemocyanin (KLH) as a carrier protein. The peptides were given either in combination, as a bi-specific immunogen, or in a single form, together with complete/incomplete Freund's adjuvant. Mice were fed with high-fat diet for 7 weeks then sacrificed. Peptide-specific antibody responses were detected in the sera by ELISA.

[3] = test system: hHSP60 peptide; assay: Peptide-specific antibody response in sera by ELISA after immunization with KLH conjugates, antigen hHSP60 peptide; type: in vivo, mice
Description: as §1

[4] = test system: Apob^tm2SgyLdlr^tm1Her/J mice; assay: Histological analysis of atherosclerotic lesions in the aortic sinus of immunized mice; type: in vivo
Description: LDL receptor-deficient mice expressing ApoB-100 were immunized with a combination of two peptides derived from ApoB1 ([…], SEQ ID NO:25) and hHSP60 (AELKKQSKPVT, SEQ ID NO:26).
as §1
The lesions were 14.66% smaller following immunization with ApoB1 peptide alone (FIG. 5B), and 21.15% smaller after immunization with hHSP60 peptide alone (FIG. 5C) than in control mice.

[5] = test system: macrophages (CD68+ cells); assay: Infiltration of macrophages into atherosclerotic lesions, anti-CD68 staining; type: in vivo; settings: compared with mice immunized with either HSP60 or apoB1 alone; FIG. 6
Description: Infiltration of macrophages into atherosclerotic lesions in the Apob^tm2SgyLdlr^tm1Her/J mice were quantified by staining with anti-CD68. Sections of the tissue sample (5 μm thick) were stained with hematoxylin-eosin (H.E.) and examined under a light microscope. Macrophage levels were compared in a sample obtained from mice immunized with adjuvant only (control), mice immunized with ApoB only, mice immunized with hHSP60 only and mice immunized with the bi-specific ApoB1+hHSP60 immunogen.

For “ApoB1 + hHSP60-KLH: combination of ApoB1 and hHSP60 peptides conjugated to KLH, bi-specific immunogen (chain 1 IEIGLEGKGFEPTLEALFGK; chain 2 AELKKQSKPVT; also: peptides conjugated to KLH; listed as Homo sapiens)”, the “Immune response on KO- mouse model” value [1] was “Very Good (very good immunoreactivity ((titre 3200))”, the “OD at 1:100 serum dilution, ELISA antigen ApoB1 peptide, Mean” value ([2]; Week 8, group mean) was 1.333 and the “OD at 1:100 serum dilution, ELISA antigen ApoB1 peptide” value ([2]; Week 8, individual mouse) was 1.227 and 1.546 and 1.449 and 1.437 and 1.142 and 1.229 and 1.303. The “OD at 1:100 serum dilution, ELISA antigen hHSP60 peptide, Mean” value ([3]; Week 8, group mean) was 1.366, the “OD at 1:100 serum dilution, ELISA antigen hHSP60 peptide” value ([3]; Week 8, individual mouse) was 1.368 and 1.405 and 1.556 and 1.282 and 1.215 and 1.338 and 1.396 and the “protection from progression of atherosclerotic lesion” value ([4]; LDL receptor-deficient mice expressing ApoB-100) was “synergistic protection”. For the same substance, the “atherosclerotic lesions in the aortic sinus smaller in size than in control mice” value ([4]; vs adjuvant control, high-fat diet for 7 weeks) was 41.34% and the “number of macrophages (CD68+ cells) found within lesions of atherosclerosis” value [5] was “fewer”.
